From patent US11536685B2, “High throughput assay for identifying microbial redox enzymes” (TRUSTEES OF BOSTON UNIVERSITY, priority 2020, dated 2022)
Read-outs that look alike come from different tables or passages of the source.

Assays:
[1] = target: T1, NicA2 (Pseudomonas putida, UniProt F8G0P2); test: Chronoamperometric NicA2 electrochemical nicotine biosensor; assay type: biochemical, Pseudomonas putida S16; design: poly-histidine; made in house; host or cells: E. coli BL21 (DE3); settings: for chronoamperometric response to compound alone: added in the middle of a chronoamperometric experiment
Protocol: Sensor Preparation: Electrochemical experiments were performed with VersaSTAT MC™ (Ametek Inc.™, Pennsylvania, Pa.). Sensors were prepared with Screen-Printed Prussian Blue/Carbon Electrode (Metrohm USA™, Riverview, Fla.). […] The sensors were allowed to dry overnight at 4° C. with no light prior to use.
Chronoamperometric responses were recorded over time, with a potential −0.2 V (versus Ag/AgCl). […] Similar experiments were performed to evaluate the selectivity of the sensor to cotinine.
The electrochemical biosensor was composed of a Screen-Printed Prussian Blue/Carbon Electrode with a Ag/AgCl reference electrode (RE). […] Chronoamperometric responses were recorded over time with a potential −0.2 V versus the RE.
The selectivity of the biosensor was evaluated by measuring the chronoamperometric response in the presence of common interferents at relevant physiological concentrations in sweat (see e.g., FIG. 22C).

[2] = target: T1, NicA2; test: AUR fluorescence of cells expressing APEX2 and NicA2; assay type: cell-based, Pseudomonas putida S16
[3] = test system: Rosetta2 (DE3) cells expressing MAO; test: Cell viability of Rosetta2 (DE3) cells expressing MAO; assay type: cell-based, E. coli
[4] = test system: C41 cells expressing MAO; test: Cell viability of C41 cells expressing MAO; assay type: cell-based, E. coli; settings: C41 AUR fluorescing cells expressing MAO
[5] = test system: C. ammoniagenes MAO; test: AUR fluorescence assay in Rosetta2 (DE3) cells expressing MAO; assay type: cell-based
[6] = target: T2, nicA2 (Pseudomonas putida, UniProt F8G0P2); test: FACS percentage of fluorescent cells on nicA2 induction; assay type: cell-based; settings: induced with 50 μM IPTG; APEX2, AUR and nicotine present
T2 construct: expressed in transfected cells; host or cells: E. coli
T2 sequence (F8G0P2 39-482): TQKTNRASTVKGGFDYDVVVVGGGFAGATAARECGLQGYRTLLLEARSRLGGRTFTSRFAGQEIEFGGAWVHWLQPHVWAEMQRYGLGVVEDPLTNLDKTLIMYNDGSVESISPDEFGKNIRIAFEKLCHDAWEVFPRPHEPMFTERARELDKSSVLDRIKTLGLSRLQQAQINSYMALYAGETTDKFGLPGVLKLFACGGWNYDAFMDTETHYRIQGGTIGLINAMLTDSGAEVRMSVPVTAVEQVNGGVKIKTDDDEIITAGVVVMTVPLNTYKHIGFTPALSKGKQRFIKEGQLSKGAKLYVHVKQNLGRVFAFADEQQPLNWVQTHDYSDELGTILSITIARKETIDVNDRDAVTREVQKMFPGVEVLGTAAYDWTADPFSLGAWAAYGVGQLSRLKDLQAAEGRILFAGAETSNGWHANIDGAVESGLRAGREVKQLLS

[7] = test system: candidate MRE; test: Optimized MRE assay, clone responsive to hydrocortisone; assay type: cell-based; settings: Rosetta2 (DE3) cells, clone from mixture of seven gDNA libraries
Excerpt: Further analysis of the fluorescence cells identified two clones that expressed a candidate MRE responsive to lidocaine (FIG. 40A) and two clones that were responsive to cortisol (FIG. 40B). Additionally, the inventors also discovered one clone expressing a candidate MRE responsive to hydrocortisone (FIGS. 41A-41F).

Row | SMILES | cell viability [3] | cell viability as compared to Rosetta2 (DE3) cells [4] | AUR fluorescence [5] | further results
1 | CN1C(=O)CC[C@H]1c1cccnc1 [Cotinine] | – | – | – | effect upon the response to nicotine ([1]; 200 μM nicotine solution added to solution of the compound): minimal effect
2 | CN1CCCC1c1cccnc1 (stereo not drawn) [nicotine] | substantially decreased | – | – | time of return to baseline ([1]; 200 μM nicotine): 6000 s; time to maximal current ([1]; 200 μM nicotine): 4000 s; Maximal current ([1]; 200 μM nicotine, 2 nmol NicA2, −0.2 V versus Ag/AgCl, PBS): ~250 nA; fluorescence of cells expressing APEX2 and NicA2 [2]: robust fluorescence
3 | NCCc1c[nH]c2ccccc12 [tryptamine] | do not decrease cell viability | decreased viability | produce fluorescent signal | –
4 | NCCc1ccc(O)cc1 [tyramine] | do not decrease cell viability | decreased viability | produce fluorescent signal | –
5 | c1cncc(C2=NCCC2)c1 [myosmine] | – | – | – | response to nicotine addition after NicA2 was inhibited by myosmine [1]: Minimal responses; chronoamperometric response to compound alone [1]: Minimal responses; chronoamperometric response to compound alone ([1]; listed as Myosmine): Minimal response; response to nicotine addition after NicA2 was inhibited by myosmine ([1]; listed as Myosmine): Minimal response; fluorescence of cells expressing APEX2 and NicA2 [2]: not
6 | NCc1ccccc1 [benzylamine] | do not decrease cell viability | – | produce fluorescent signal | –
7 | CC(C)S[C@@H]1O[C@H](CO)[C@H](O)[C@H](O)[C@H]1O [IPTG, isopropyl b-D-1-thiogalactopyranoside] | – | – | – | percentage of cells fluorescent [6]: 79.3%
8 | NCC(O)c1ccc(O)cc1 (stereo not drawn) [octopamine] | do not decrease cell viability | decreased viability | produce fluorescent signal | –
9 | C[C@]12CCC(=O)C=C1CC[C@@H]1[C@@H]2[C@@H](O)C[C@@]2(C)[C@H]1CC[C@]2(O)C(=O)CO [hydrocortisone] | – | – | – | fluorescence over time as compared to no hydrocortisone [7]: increased fluorescence
